Data from ChEMBL document CHEMBL1157230, “Bacterial biofilm inhibitors from Diospyros dendo” (2006).

Tested on: Pseudomonas aeruginosa
Experiment: Antibacterial activity against Pseudomonas aeruginosa PAO1 assessed as inhibition of biofilm formation at 10 ug/ml after 24 hrs
Assay type: functional
Settings: PAO1, 24 h

Row | Compound | inhibition at 10 µg/mL
1 | COc1cc(/C=C/C(=O)O[C@H]2[C@H](O)C[C@]3(C)[C@H]4CC=C5[C@@H]6[C@@H](C)[C@H](C)CC[C@]6(C(=O)O)CC[C@@]5(C)[C@]4(C)CC[C@H]3C2(C)C)ccc1O | 48%
2 | C[C@H]1[C@H](C)CC[C@]2(C(=O)O)CC[C@]3(C)C(=CC[C@@H]4[C@@]5(C)CC[C@H](O)C(C)(C)[C@@H]5CC[C@]43C)[C@H]12 [URSOLIC ACID] | 35%
3 | C[C@H]1[C@H](C)CC[C@]2(C(=O)O)CC[C@]3(C)C(=CC[C@@H]4[C@@]5(C)C[C@@H](O)[C@H](OC(=O)/C=C/c6ccc(O)cc6)C(C)(C)[C@@H]5CC[C@]43C)[C@H]12 | 35%
4 | C[C@@H]1[C@H]2C3=CC[C@@H]4[C@@]5(C)CC[C@H](OC(=O)/C=C\c6ccc(O)cc6)C(C)(C)[C@@H]5CC[C@@]4(C)[C@]3(C)CC[C@@]2(C(=O)O)CC[C@]1(C)O | 62%
5 | C[C@H]1[C@H](C)CC[C@]2(C(=O)O)CC[C@]3(C)C(=CC[C@@H]4[C@@]5(C)C[C@@H](O)[C@H](OC(=O)/C=C\c6ccc(O)cc6)C(C)(C)[C@@H]5CC[C@]43C)[C@H]12 | 32%
